Test results as given in ChEMBL document CHEMBL2074494 (Biopharm Drug Dispos, 2004).

Target: ATP-dependent translocase ABCB1 (Homo sapiens, UniProt P08183)
Test: TP_TRANSPORTER: transepithelial transport in Caco-2 cells
Type: functional, cell-based

Chain of ATP-dependent translocase ABCB1 (P08183 whole entry): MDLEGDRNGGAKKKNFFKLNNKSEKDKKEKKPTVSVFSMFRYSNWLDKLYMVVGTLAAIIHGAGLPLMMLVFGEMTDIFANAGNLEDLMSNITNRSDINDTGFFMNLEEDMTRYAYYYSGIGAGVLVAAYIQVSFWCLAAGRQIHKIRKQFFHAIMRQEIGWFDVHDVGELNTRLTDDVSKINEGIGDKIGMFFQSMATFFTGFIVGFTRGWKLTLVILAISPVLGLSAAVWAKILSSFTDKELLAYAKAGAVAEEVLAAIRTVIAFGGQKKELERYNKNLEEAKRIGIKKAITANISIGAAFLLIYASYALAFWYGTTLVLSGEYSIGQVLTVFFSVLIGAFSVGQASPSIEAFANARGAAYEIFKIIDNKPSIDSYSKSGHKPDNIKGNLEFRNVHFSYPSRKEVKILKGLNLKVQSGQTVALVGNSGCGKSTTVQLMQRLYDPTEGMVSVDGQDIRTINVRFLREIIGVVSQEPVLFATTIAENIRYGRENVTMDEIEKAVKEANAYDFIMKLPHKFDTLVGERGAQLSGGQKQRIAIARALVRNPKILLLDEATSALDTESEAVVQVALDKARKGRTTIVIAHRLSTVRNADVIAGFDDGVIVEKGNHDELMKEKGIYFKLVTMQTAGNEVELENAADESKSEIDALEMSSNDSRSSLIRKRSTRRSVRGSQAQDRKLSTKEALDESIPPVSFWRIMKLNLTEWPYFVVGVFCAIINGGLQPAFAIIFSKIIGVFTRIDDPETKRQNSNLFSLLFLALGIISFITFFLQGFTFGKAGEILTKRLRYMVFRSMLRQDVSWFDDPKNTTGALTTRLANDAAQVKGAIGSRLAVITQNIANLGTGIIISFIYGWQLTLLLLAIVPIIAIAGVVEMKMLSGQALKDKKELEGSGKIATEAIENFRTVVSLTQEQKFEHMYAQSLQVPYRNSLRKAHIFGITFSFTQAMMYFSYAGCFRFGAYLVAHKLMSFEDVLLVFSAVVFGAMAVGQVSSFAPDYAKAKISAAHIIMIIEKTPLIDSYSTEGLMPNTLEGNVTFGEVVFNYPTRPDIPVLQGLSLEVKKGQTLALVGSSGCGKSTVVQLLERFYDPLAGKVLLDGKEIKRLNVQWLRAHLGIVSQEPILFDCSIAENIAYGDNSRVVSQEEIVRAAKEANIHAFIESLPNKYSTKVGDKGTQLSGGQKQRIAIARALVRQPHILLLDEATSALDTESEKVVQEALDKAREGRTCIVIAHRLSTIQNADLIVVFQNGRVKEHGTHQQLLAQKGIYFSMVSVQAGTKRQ

SMILES | Activity
CCC(=C(c1ccc(O)cc1)c1ccc(OCCN(C)C)cc1)c1ccccc1 | is not a substrate [-]
CC/C(=C(\c1ccccc1)c1ccc(OCCN)cc1)c1ccccc1 [DESMETHYL TAMOXIFEN] | is not a substrate [-]
